Experimental data as given in patent US20230278972A1, “SUBSTITUTED HALOALKYL SULFONANILIDE HERBICIDES” (FMC Corporation, priority 2020, published 2023).

Tests used:
Type in all cases: in vivo
[1] = tested on: barnyardgrass (Echinochloa crus-galli); test: Test A preemergence, barnyardgrass; settings: Preemergence; for Barnyardgrass plant response rating: 125 g ai/ha, visual injury on 0 to 100 scale (0 no effect, 100 complete control), approximately 10 days; for Plant response rating, Barnyardgrass: 500 g ai/ha, 0 to 100 scale (0 no effect, 100 complete control)
In short: (§1)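 Greenhouse pot test in a loam–sand blend; compounds delivered in a non-phytotoxic solvent carrying a surfactant, applied either as a directed spray to soil at seeding or over seedlings 2 to 10 cm high with one to two leaves.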

kochia (Bassia scoparia) [2] = test: Test A preemergence, kochia; settings: Preemergence; for Kochia plant response rating: 125 g ai/ha, visual injury on 0 to 100 scale (0 no effect, 100 complete control), approximately 10 days; for Plant response rating, Kochia: 500 g ai/ha, 0 to 100 scale (0 no effect, 100 complete control)
In short: as §1

[3] = tested on: ragweed (common ragweed, Ambrosia artemisiifolia); test: Test A preemergence, ragweed; settings: Preemergence; for Ragweed plant response rating: 125 g ai/ha, visual injury on 0 to 100 scale (0 no effect, 100 complete control), approximately 10 days; for Plant response rating, Ragweed: 500 g ai/ha, 0 to 100 scale (0 no effect, 100 complete control)
In short: as §1

[4] = tested on: Ryegrass, Italian (Italian ryegrass, Lolium multiflorum); test: Test A preemergence, Ryegrass, Italian; settings: Preemergence; for Ryegrass, Italian plant response rating: 125 g ai/ha, visual injury on 0 to 100 scale (0 no effect, 100 complete control), approximately 10 days; for Plant response rating, Ryegrass, Italian: 500 g ai/ha, 0 to 100 scale (0 no effect, 100 complete control)
In short: as §1

[5] = tested on: Foxtail, Giant (giant foxtail, Setaria faberi); test: Test A preemergence, Foxtail, Giant; settings: Preemergence; for Foxtail, Giant plant response rating: 125 g ai/ha, visual injury on 0 to 100 scale (0 no effect, 100 complete control), approximately 10 days; for Plant response rating, Foxtail, Giant: 500 g ai/ha, 0 to 100 scale (0 no effect, 100 complete control)
In short: as §1

[6] = tested on: pigweed (Amaranthus retroflexus); test: Test A preemergence, pigweed; settings: for Pigweed plant response rating: 125 g ai/ha, visual injury on 0 to 100 scale (0 no effect, 100 complete control), approximately 10 days; for Plant response rating, Pigweed: 500 g ai/ha, 0 to 100 scale (0 no effect, 100 complete control)
In short: (§2)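 Whole-plant herbicidal screen in pots of loam blended with sand. Sprays used a surfactant-containing, non-phytotoxic solvent vehicle. Timing was preemergence soil-directed at planting or postemergence at the one- to two-leaf stage (2–10 cm).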

[7] = tested on: barnyardgrass (Echinochloa crus-galli); test: Test A postemergence, barnyardgrass; settings: Postemergence, 0 to 100 scale (0 no effect, 100 complete control); for Plant response rating, Barnyardgrass: 125 g ai/ha; for Barnyardgrass plant response rating: 500 g ai/ha, visual injury vs untreated controls after approx. 10 days
In short: as §2

kochia (Bassia scoparia) [8] = test: Test A postemergence, kochia; settings: Postemergence, 0 to 100 scale (0 no effect, 100 complete control); for Plant response rating, Kochia: 125 g ai/ha; for Kochia plant response rating: 500 g ai/ha, visual injury vs untreated controls after approx. 10 days
In short: as §1

[9] = tested on: ragweed (common ragweed, Ambrosia artemisiifolia); test: Test A postemergence, ragweed; settings: Postemergence, 0 to 100 scale (0 no effect, 100 complete control); for Plant response rating, Ragweed: 125 g ai/ha; for Ragweed plant response rating: 500 g ai/ha, visual injury vs untreated controls after approx. 10 days
In short: as §1

[10] = tested on: Ryegrass, Italian (Italian ryegrass, Lolium multiflorum); test: Test A postemergence, Ryegrass, Italian; settings: Postemergence, 0 to 100 scale (0 no effect, 100 complete control); for Plant response rating, Ryegrass, Italian: 125 g ai/ha; for Ryegrass, Italian plant response rating: 500 g ai/ha, visual injury vs untreated controls after approx. 10 days
In short: as §1

[11] = tested on: Foxtail, Giant (giant foxtail, Setaria faberi); test: Test A postemergence, Foxtail, Giant; settings: Postemergence, 0 to 100 scale (0 no effect, 100 complete control); for Plant response rating, Foxtail, Giant: 125 g ai/ha; for Foxtail, Giant plant response rating: 500 g ai/ha, visual injury vs untreated controls after approx. 10 days
In short: as §1

[12] = tested on: pigweed (Amaranthus retroflexus); test: Test A postemergence, pigweed; settings: Postemergence, 0 to 100 scale (0 no effect, 100 complete control); for Plant response rating, Pigweed: 125 g ai/ha; for Pigweed plant response rating: 500 g ai/ha, visual injury vs untreated controls after approx. 10 days
In short: as §1

[13] = tested on: wheat (Triticum aestivum); test: Test A postemergence, wheat; settings: Postemergence, 0 to 100 scale (0 no effect, 100 complete control); for Plant response rating, Wheat: 125 g ai/ha; for Wheat plant response rating: 500 g ai/ha, visual injury vs untreated controls after approx. 10 days
In short: as §2

corn (Zea mays) = test: Test A postemergence, corn; settings: Postemergence, 0 to 100 scale (0 no effect, 100 complete control); for Plant response rating, Corn: 125 g ai/ha; for Corn plant response rating: 500 g ai/ha, visual injury vs untreated controls after approx. 10 days
In short: as §1

[14] = tested on: blackgrass (Alopecurus myosuroides); test: Test A postemergence, blackgrass; settings: Postemergence, 0 to 100 scale (0 no effect, 100 complete control); for Plant response rating, Blackgrass: 125 g ai/ha; for Blackgrass plant response rating: 500 g ai/ha, visual injury vs untreated controls after approx. 10 days
In short: as §1

[15] = tested on: galium (catchweed bedstraw, Galium aparine); test: Test A postemergence, galium; settings: Postemergence, 0 to 100 scale (0 no effect, 100 complete control); for Plant response rating, Galium: 125 g ai/ha; for Galium plant response rating: 500 g ai/ha, visual injury vs untreated controls after approx. 10 days
In short: as §2

SMILES	Barnyardgrass plant response rating [1]	Plant response rating, Barnyardgrass [1]	Kochia plant response rating (kochia (Bassia scoparia) [2])	Plant response rating, Kochia (kochia (Bassia scoparia) [2])	Ragweed plant response rating [3]	Plant response rating, Ragweed [3]	Ryegrass, Italian plant response rating [4]	Plant response rating, Ryegrass, Italian [4]	Foxtail, Giant plant response rating [5]	Plant response rating, Foxtail, Giant [5]	Pigweed plant response rating [6]	Plant response rating, Pigweed [6]	Plant response rating, Barnyardgrass [7]	Barnyardgrass plant response rating [7]	Plant response rating, Kochia (kochia (Bassia scoparia) [8])	Kochia plant response rating (kochia (Bassia scoparia) [8])	Plant response rating, Ragweed [9]	Ragweed plant response rating [9]	Plant response rating, Ryegrass, Italian [10]	Ryegrass, Italian plant response rating [10]	also measured
Cc1cc(C)c(C2=NOC3(CCOCC3)C2)cc1NS(=O)(=O)C(F)(F)F [Compound 177]	80	100	100	100	70	90	100	100	70	100	80	100	70	90	20	70	90	90	40	90	Plant response rating, Foxtail, Giant [11]: 10; Foxtail, Giant plant response rating [11]: 60; Plant response rating, Pigweed [12]: 60; Pigweed plant response rating [12]: 90; Plant response rating, Wheat [13]: 20; Wheat plant response rating [13]: 80; Plant response rating, Corn (corn (Zea mays)): 0; Corn plant response rating (corn (Zea mays)): 50; Plant response rating, Blackgrass [14]: 0; Blackgrass plant response rating [14]: 30; Plant response rating, Galium [15]: 90; Galium plant response rating [15]: 90
Cc1cc(C)c(N(S(=O)(=O)C(F)(F)F)S(=O)(=O)C(F)(F)F)cc1C1=NOC2(CCOCC2)C1 [Compound 178]	90	100	90	100	80	90	90	100	90	100	100	100	40	90	20	70	40	80	0	30	Plant response rating, Foxtail, Giant [11]: 0; Foxtail, Giant plant response rating [11]: 20; Plant response rating, Pigweed [12]: 60; Pigweed plant response rating [12]: 90; Plant response rating, Wheat [13]: 10; Wheat plant response rating [13]: 30; Plant response rating, Corn (corn (Zea mays)): 0; Corn plant response rating (corn (Zea mays)): 10; Plant response rating, Blackgrass [14]: 0; Blackgrass plant response rating [14]: 0; Plant response rating, Galium [15]: 80; Galium plant response rating [15]: 90
Cc1cc(C(F)(F)F)c(C(=O)N2CCCCC2)cc1NS(=O)(=O)C(F)(F)F [Compound 180]	0	80	0	0	20	70	0	50	0	90	20	70	0	10	10	40	20	70	0	0	Plant response rating, Foxtail, Giant [11]: 10; Foxtail, Giant plant response rating [11]: 10; Plant response rating, Pigweed [12]: 50; Pigweed plant response rating [12]: 70; Plant response rating, Wheat [13]: 0; Wheat plant response rating [13]: 0; Plant response rating, Corn (corn (Zea mays)): 0; Corn plant response rating (corn (Zea mays)): 0; Plant response rating, Blackgrass [14]: 0; Blackgrass plant response rating [14]: 20; Plant response rating, Galium [15]: 70; Galium plant response rating [15]: 90
C#CCN(CC#C)C(=O)c1cc(N(S(=O)(=O)C(F)(F)F)S(=O)(=O)C(F)(F)F)c(C)cc1C [Compound 181]	90	100	60	100	50	90	80	90	100	100	40	80	80	90	30	80	80	90	70	90	Plant response rating, Foxtail, Giant [11]: 60; Foxtail, Giant plant response rating [11]: 90; Plant response rating, Pigweed [12]: 40; Pigweed plant response rating [12]: 80; Plant response rating, Wheat [13]: 50; Wheat plant response rating [13]: 80; Plant response rating, Corn (corn (Zea mays)): 10; Corn plant response rating (corn (Zea mays)): 80; Plant response rating, Blackgrass [14]: 10; Blackgrass plant response rating [14]: 30; Plant response rating, Galium [15]: 60; Galium plant response rating [15]: 70
Cc1cc(Cl)c(C2=NOC(C)(C)C2)cc1NS(=O)(=O)C(F)(F)F [Compound 183]	90	100	20	60	20	90	70	100	50	70	70	80	20	70	10	50	60	80	0	0	Plant response rating, Foxtail, Giant [11]: 0; Foxtail, Giant plant response rating [11]: 10; Plant response rating, Pigweed [12]: 30; Pigweed plant response rating [12]: 30; Plant response rating, Wheat [13]: 0; Wheat plant response rating [13]: 0; Plant response rating, Corn (corn (Zea mays)): 0; Corn plant response rating (corn (Zea mays)): 30; Plant response rating, Blackgrass [14]: 10; Blackgrass plant response rating [14]: 10; Plant response rating, Galium [15]: 70; Galium plant response rating [15]: 90
